Test results from US12569534B2, “Therapeutic nanoparticles by coacervate complexation and their use for treating bacteria” (priority 2018, dated 2026).

Legend:
P. aeruginosa = test: MIC/MBC broth microdilution, Example 1; assay type: cell-based, Pseudomonas aeruginosa; settings: Example 1 CS NPs
Experimental: (§1) To evaluate antibacterial efficacy of the CS NPs, their minimum inhibitory concentration (MIC) and minimum bactericidal concentration (MBC) were assessed against 5 reference bacterial strains and 39 clinical isolates of carbapenem-resistant A. baumannii, P. aeruginosa, E. coli, and K. pneumoniae.
(§2) Reference bacterial stains were purchased from ATCC. Clinical isolates of carbapenem-resistant bacteria were obtained from National Health Research Institutes (NHRI) and Tri-Service General Hospital (TSGH). MIC is defined as the lowest concentration of antibiotics required to inhibit the growth of bacteria. MBC is defined as the lowest concentration of antibiotics required to eradicate microorganisms. The MICs of CS and the CS NPs were determined using a broth microdilution method. Bacterial suspensions were adjusted to a turbidity of McFarland 0.5±0.05 and cultured overnight with different concentrations of CS or CS NPs. A control group without antimicrobial treatment was prepared as a reference. Following overnight incubation, solution turbidity was determined by visual inspection. Culture wells with no observable turbidity were further sub-cultured for MBC evaluation. Solutions from the clear wells were deposited onto an agar plate and cultured overnight to determine the MBCs.

K. pneumoniae [1] = test: MIC/MBC broth microdilution, Example 1; assay type: cell-based, Klebsiella pneumoniae; settings: Example 1 CS NPs
Experimental: as §1, §2

A. baumannii = test: MIC/MBC broth microdilution, Example 2; assay type: cell-based, Acinetobacter baumannii; settings: Example 2 CS NPs
Experimental: as §2
(§3) To evaluate the antibacterial efficacy of the CS NPs of this study, their MIC and MBC were assessed against 5 reference bacterial strains and 20 clinical isolates of carbapenem-resistant A. baumannii, E. coli, K. pneumoniae, and P. aeruginosa according to the procedures set forth in EXAMPLE 1. Reference bacterial stains were purchased from ATCC. Carbapenem-resistant clinical isolated were obtained from NHRI.

E. coli = test: MIC/MBC broth microdilution, Example 2; assay type: cell-based; settings: Example 2 CS NPs
Experimental: as §2, §3

K. pneumoniae [2] = test: MIC/MBC broth microdilution, Example 2; assay type: cell-based, Klebsiella pneumoniae; settings: Example 2 CS NPs
Experimental: as §2, §3

[3] = Maximum tolerated dose, intravenous; settings: BALB/c mice, tail vein, Example 1 study
Source text: See e,g., Li et al, International Journal of Pharmaceutics, 2016, 515, 20-29; and Barnett et al., British Journal of Pharmacology and Chemotherapy, 1964, 23, 552-574. The highest dosage at which all examined subjects remained alive was defined as the MTD.
For this study, mice (8 weeks, Balb/c mice) were obtained from Bio-LASCO Taiwan Co., Ltd (Taipei, Taiwan). […] The highest dosage at which all examined subjects remained alive was defined as the MTD.

E. Coli ATCC 25922 = test: MIC and MBC of different treatments, Example 3; assay type: cell-based
Experimental: as §2

CS release by dialysis = assay type: physicochemical; settings: 50 k MWCO membrane, 37° C., pH 7.4 and pH 5.0
Experimental: CS release from the CS NPs was studied using a dialysis tube with 50 k MWCO membrane (Pur-A-Lyzer™ Maxi Dialysis Kit, Sigma-Aldrich) in 0.15 M phosphate buffer (pH 7.4) and in 0.15 M acetate buffer solution (pH 5.0). […] Samples were each placed into a dialysis tube at 37° C. under gentle stirring. At predetermined time points, the samples were collected and analyzed for CS content using HPLC.

[4] = mouse, in vivo, iv, 4 mg/kg
Experimental: A group of mice were injected intravenously with sterile PBS through the tail vein as negative control. 24 hours after the last treatment, 0.5 mL of blood was collected from the animals for comprehensive metabolic panel analysis. The data was analyzed by Student's t-test followed by Dunnett's multiple comparison tests using GraphPad Prism (GraphPad Software, San Diego, CA). p values smaller than 0.05 were considered significant.

[5] = clinical carbapenem-resistant P. aeruginosa NHRI 1
[6] = clinical carbapenem-resistant P. aeruginosa NHRI 2
[7] = clinical carbapenem-resistant P. aeruginosa NHRI 3
[8] = clinical carbapenem-resistant P. aeruginosa NHRI 4
[9] = clinical carbapenem-resistant P. aeruginosa NHRI 5
[10] = reference strain P. aeruginosa 27853
[11] = clinical carbapenem-resistant K. pneumoniae NHRI 1
[12] = clinical carbapenem-resistant K. pneumoniae NHRI 2
[13] = clinical carbapenem-resistant K. pneumoniae NHRI 4
[14] = clinical carbapenem-resistant K. pneumoniae NHRI 5
[15] = clinical carbapenem-resistant K. pneumoniae TSGH 1
[16] = clinical carbapenem-resistant K. pneumoniae TSGH 3
[17] = clinical carbapenem-resistant K. pneumoniae TSGH 5
[18] = clinical carbapenem-resistant K. pneumoniae TSGH 7
[19] = clinical carbapenem-resistant K. pneumoniae TSGH 9
[20] = clinical carbapenem-resistant K. pneumoniae TSGH 11
[21] = clinical carbapenem-resistant K. pneumoniae TSGH 13
[22] = clinical carbapenem-resistant K. pneumoniae TSGH 15
[23] = clinical carbapenem-resistant K. pneumoniae TSGH 16
[24] = clinical carbapenem-resistant K. pneumoniae TSGH 17
[25] = clinical carbapenem-resistant K. pneumoniae TSGH 18
[26] = clinical carbapenem-resistant K. pneumoniae TSGH 19
[27] = clinical carbapenem-resistant isolate A. baumannii NHRI 1
[28] = clinical carbapenem-resistant isolate A. baumannii NHRI 2
[29] = clinical carbapenem-resistant isolate A. baumannii NHRI 3
[30] = clinical carbapenem-resistant isolate A. baumannii NHRI 4
[31] = clinical carbapenem-resistant isolate A. baumannii NHRI 5
[32] = reference strain A. baumannii 17978
[33] = reference strain A. baumannii 19606
[34] = clinical carbapenem-resistant isolate E. coli NHRI 1
[35] = clinical carbapenem-resistant isolate E. coli NHRI 2
[36] = clinical carbapenem-resistant isolate E. coli NHRI 3
[37] = clinical carbapenem-resistant isolate E. coli NHRI 4
[38] = clinical carbapenem-resistant isolate E. coli NHRI 5
[39] = clinical carbapenem-resistant isolate K. pneumoniae NHRI 1
[40] = clinical carbapenem-resistant isolate K. pneumoniae NHRI 2
[41] = clinical carbapenem-resistant isolate K. pneumoniae NHRI 3
[42] = clinical carbapenem-resistant isolate K. pneumoniae NHRI 4
[43] = clinical carbapenem-resistant isolate K. pneumoniae NHRI 5

colistin [CS] gave an MBC (P. aeruginosa; [5]) of 2 µg/mL, an MIC (P. aeruginosa; [5]) of 2 µg/mL and an MBC (P. aeruginosa; [6]) of 4 µg/mL. It also gave an MIC (P. aeruginosa; [6]) of 2 µg/mL, an MBC (P. aeruginosa; [7]) of 8 µg/mL and an MIC (P. aeruginosa; [7]) of 2 µg/mL. The MBC (P. aeruginosa; [8]) was 8 µg/mL, the MIC (P. aeruginosa; [8]) was 4 µg/mL and the MBC (P. aeruginosa; [9]) was 4 µg/mL. It also gave an MIC (P. aeruginosa; [9]) of 2 µg/mL, an MBC (P. aeruginosa; [10]) of 1 µg/mL and an MIC (P. aeruginosa; [10]) of 1 µg/mL. The MBC (K. pneumoniae [1]; [11]) was 4 µg/mL, the MIC (K. pneumoniae [1]; [11]) was 2 µg/mL and the MBC (K. pneumoniae [1]; [12]) was 2 µg/mL. It also gave an MIC (K. pneumoniae [1]; [12]) of 2 µg/mL, an MBC (K. pneumoniae [1]; [13]) of 2 µg/mL and an MIC (K. pneumoniae [1]; [13]) of 2 µg/mL. For the same substance, the MBC (K. pneumoniae [1]; [14]) was 2 µg/mL, the MIC (K. pneumoniae [1]; [14]) was 2 µg/mL and the MBC (K. pneumoniae [1]; [15]) was 2 µg/mL. The MIC (K. pneumoniae [1]; [15]) was 2 µg/mL, the MBC (K. pneumoniae [1]; [16]) was 1 µg/mL and the MIC (K. pneumoniae [1]; [16]) was 1 µg/mL. It also gave an MBC (K. pneumoniae [1]; [17]) of 1 µg/mL, an MIC (K. pneumoniae [1]; [17]) of 1 µg/mL and an MBC (K. pneumoniae [1]; [18]) of 1 µg/mL. The MIC (K. pneumoniae [1]; [18]) was 1 µg/mL, the MBC (K. pneumoniae [1]; [19]) was 2 µg/mL and the MIC (K. pneumoniae [1]; [19]) was 1 µg/mL. The MBC (K. pneumoniae [1]; [20]) was 4 µg/mL, the MIC (K. pneumoniae [1]; [20]) was 4 µg/mL and the MBC (K. pneumoniae [1]; [21]) was 2 µg/mL. The MIC (K. pneumoniae [1]; [21]) was 1 µg/mL, the MBC (K. pneumoniae [1]; [22]) was 1 µg/mL and the MIC (K. pneumoniae [1]; [22]) was 1 µg/mL. For the same substance, the MBC (K. pneumoniae [1]; [23]) was 2 µg/mL, the MIC (K. pneumoniae [1]; [23]) was 2 µg/mL and the MBC (K. pneumoniae [1]; [24]) was 1 µg/mL. For the same substance, the MIC (K. pneumoniae [1]; [24]) was 1 µg/mL, the MBC (K. pneumoniae [1]; [25]) was 1 µg/mL and the MIC (K. pneumoniae [1]; [25]) was 1 µg/mL. For the same substance, the MBC (K. pneumoniae [1]; [26]) was 4 µg/mL, the MIC (K. pneumoniae [1]; [26]) was 1 µg/mL and the MBC (A. baumannii; [27]) was 2 µg/mL. For the same substance, the MIC (A. baumannii; [27]) was 1 µg/mL, the MBC (A. baumannii; [28]) was 2 µg/mL and the MIC (A. baumannii; [28]) was 2 µg/mL. The MBC (A. baumannii; [29]) was 2 µg/mL, the MIC (A. baumannii; [29]) was 1 µg/mL and the MBC (A. baumannii; [30]) was 4 µg/mL. For the same substance, the MIC (A. baumannii; [30]) was 1 µg/mL, the MBC (A. baumannii; [31]) was 2 µg/mL and the MIC (A. baumannii; [31]) was 1 µg/mL. For the same substance, the MBC (A. baumannii; [32]) was 2 µg/mL, the MIC (A. baumannii; [32]) was 2 µg/mL and the MBC (A. baumannii; [33]) was 4 µg/mL. For the same substance, the MIC (A. baumannii; [33]) was 2 µg/mL, the MBC (E. coli; [34]) was 2 µg/mL and the MIC (E. coli; [34]) was 2 µg/mL. The MBC (E. coli; [35]) was 2 µg/mL, the MIC (E. coli; [35]) was 1 µg/mL and the MBC (E. coli; [36]) was 2 µg/mL. For the same substance, the MIC (E. coli; [36]) was 1 µg/mL, the MBC (E. coli; [37]) was 1 µg/mL and the MIC (E. coli; [37]) was 1 µg/mL. It also gave an MBC (E. coli; [38]) of 0.5 µg/mL, an MIC (E. coli; [38]) of 0.5 µg/mL and an MBC (E. coli; reference strain E. coli 25922) of 2 µg/mL. It also gave an MIC (E. coli; reference strain E. coli 25922) of 1 µg/mL, an MBC (K. pneumoniae [2]; [39]) of 4 µg/mL and an MIC (K. pneumoniae [2]; [39]) of 1 µg/mL. For the same substance, the MBC (K. pneumoniae [2]; [40]) was 1 µg/mL, the MIC (K. pneumoniae [2]; [40]) was 1 µg/mL and the MBC (K. pneumoniae [2]; [41]) was 2 µg/mL. For the same substance, the MIC (K. pneumoniae [2]; [41]) was 1 µg/mL, the MBC (K. pneumoniae [2]; [42]) was 2 µg/mL and the MIC (K. pneumoniae [2]; [42]) was 2 µg/mL. It also gave an MBC (K. pneumoniae [2]; [43]) of 4 µg/mL, an MIC (K. pneumoniae [2]; [43]) of 1 µg/mL and an MTD [3] of 10 mg/kg. The MBC (E. Coli ATCC 25922) was 4 µg/mL, the MIC (E. Coli ATCC 25922) was 2 µg/mL and the “release profile in dialysis” value (CS release by dialysis) was “rapidly dialyzed from the setup”. The “other parameters in the comprehensive metabolic panel” value [4] was “neither CS nor the CS NPs induced any notable changes”.
